Where two headings read alike, the source gives them in different places.
Key:
C. krusei = assay type: cell-based, Candida krusei; conditions: OD595, 24 h
S. aureus = conditions: assays conducted in LB; ref van der Weerden et al., 2008; cited from earlier work
Description: (§1) The antibacterial activity of ZmD32 and NaD1 adds to a growing list of antibacterial defensins ([Sathoff and Samac, 2018]; [Sathoff et al., 2018]; [Velivelli et al., 2018]), a protein family that is best known for antifungal activity ([van der Weerden and Anderson, 2013]; [van der Weerden et al., 2013]; [Parisi et al., 2018]). The lack of reported antibacterial activity for plant defensins likely reflects the medium used for antibacterial assays, Here the ½ PDB pH 7 medium has a NaCl concentration of less than 10 mM. This concentration is considerably lower than growth media often used in anti ...

E. coli [1] = conditions: assays conducted in LB; ref van der Weerden et al., 2008; cited from earlier work
Description: as §1

C. parapsilosis = assay type: cell-based, Candida parapsilosis; conditions: OD595, 24 h
C. tropicalis ATCC 750 = assay type: cell-based, Candida tropicalis; conditions: OD595, 24 h
C. auris = assay type: cell-based, Candida auris; conditions: OD595, 24 h
C. glabrata ATCC 90030 = assay type: cell-based, Candida glabrata; conditions: OD595, 24 h
[2] = system: Leukemia monocyte lymphoma (U937) cells; test: MTT cell viability assay, U937; conditions: 48 h, twofold dilution series from 50 μM down, three independent replicates
Description: (§2) Leukemia monocyte lymphoma (U937) cells and prostate cancer (PC3) cells were cultured in RPMI-1640 medium (Sigma) buffered to pH 7.2 with HEPES and supplemented with 5–10% (v/v) fetal calf serum (FCS), 100 U/mL penicillin (Sigma) and 100 μg/mL streptomycin (Invitrogen). […] All cell lines were cultured at 37°C in a humidified atmosphere containing 5% CO2. Cell viability assays were performed using an MTT assay as described in ([Poon et al., 2014]). […] IC50 values were determined using GraphPad Prism 5 (GraphPad Software, CA, United States).

C. albicans biofilms = test: Anti-biofilm assay, Presto Blue viability; assay type: cell-based, Candida albicans; conditions: 24 h biofilm, 24 h treatment at 37°C in RPMI (132.1 mM sodium), twofold dilution from 300 μg/mL
[3] = Membrane lipid binding assay (protein-lipid overlay); conditions: detected with α-NaD2 (ZmD32) or α-NaD1 (NaD1) antibody; representative of three independent experiments
Description: Lipid binding assays were performed using Membrane Lipid Strips (Echelon Biosciences) as described in ([Poon et al., 2014]). ZmD32 binding to the lipids on the strips was detected using a polyclonal antibody generated in rabbits to the defensin NaD2 with which it shares 78.7% amino acid sequence identity ([Dracatos et al., 2014]). […] Lipid binding of NaD1 was performed as described in ([Poon et al., 2014]).

P. aeruginosa PAO1 = assay type: cell-based, Pseudomonas aeruginosa; conditions: ½ PDB adjusted to pH 7, no added NaCl; OD595, 24 h
F. graminearum PH-1 = assay type: cell-based, Fusarium graminearum; conditions: ½ PDB, no added NaCl; 5 × 10^4 spores/mL; OD595, 24 h
[4] = system: E. coli, B. subtilis, S. aureus, and P. aeruginosa; assay type: cell-based; conditions: ½ PDB, pH 7; range over four bacteria
C. albicans ATCC 90028 = assay type: cell-based, Candida albicans
B. subtilis = assay type: cell-based, Bacillus subtilis; conditions: ½ PDB adjusted to pH 7, no added NaCl, OD595, 24 h
[5] = system: prostate cancer (PC3) cells; test: MTT cell viability assay, PC3; conditions: 48 h, twofold dilution series from 50 μM down, three independent replicates
Description: as §2

E. coli [6] = assay type: cell-based, Escherichia coli; conditions: strain TOP10, OD595, 24 h
S. aureus ATCC 9144 = assay type: cell-based, Staphylococcus aureus; conditions: ½ PDB adjusted to pH 7, no added NaCl; OD595, 24 h
[7] = ½ PDB + 100 mM NaCl, read-out: NaCl IC50
[8] = ½ PDB, no added NaCl, read-out: IC50

Description for human red blood cells: Human blood was obtained from the Australian Red Cross Blood Service (Melbourne, VIC, Australia) under Material Supply Agreement 14-11VIC-03. Hemolytic activity of defensins was assessed as described in ([Evans et al., 2013]). The degree of red blood cell (RBC) lysis was measured by absorbance at 412 nm, relative to water-lysed RBCs.

NaD1: well-characterized antifungal plant defensin from Nicotiana alata floral tissues or recombinant from Pichia pastoris; used as standard (RECKTESNTFPGICITKPPCRKACISEKFTDGHCSKILRRCLCTKPC; UniProt Q8GTM0 26-72, looked up)
IC50 (C. krusei; [7]): > 10000 nM
IC50 (C. krusei; [8]): 1200 ± 400 nM
Activity against S. aureus (S. aureus): no activity
Activity against E. coli (E. coli [1]): no activity
IC50 (C. parapsilosis; [7]): 3400 ± 1200 nM
IC50 (C. parapsilosis; [8]): 1200 ± 300 nM
IC50 (C. tropicalis ATCC 750; [7]): 1300 ± 500 nM
IC50 (C. tropicalis ATCC 750; [8]): 400 ± 100 nM
IC50 (C. auris; [7]): > 10000 nM
IC50 (C. auris; [8]): 2900 ± 500 nM
IC50 (C. glabrata ATCC 90030; [7]): > 10000 nM
IC50 (C. glabrata ATCC 90030; [8]): 2800 ± 1000 nM
Effect on viability of U937 cells [2]: decreased viability of all three cell lines at much lower concentrations than ZmD32
Activity against established C. albicans biofilms (C. albicans biofilms): no activity
Lipids bound on membrane lipid strip [3]: bound preferentially to phosphatidylinositol-4,5-bisphosphate [PI(4,5)P2] but also bound to phosphatidic acid (PA) and cardiolipin
IC50 (P. aeruginosa PAO1): 4300 ± 300 nM
IC50 (F. graminearum PH-1): 1000 ± 500 nM
IC50 [4]: 2000 to 5000 nM
Red blood cells lysed at concentrations up to 50 μM (human red blood cells): ≤ 2%
Activity against C. albicans in the presence of divalent metal salts (C. albicans ATCC 90028; 5 mM MgCl2 or 2 mM CaCl2, data not shown): lost activity
IC50 (C. albicans ATCC 90028; read-out: IC50): 1600 ± 400 nM
IC50 (C. albicans ATCC 90028; read-out: NaCl IC50): > 10000 nM
IC50 (B. subtilis): 2000 ± 200 nM
Effect on viability of PC3 cells [5]: decreased viability of all three cell lines at much lower concentrations than ZmD32
IC50 (E. coli [6]; ½ PDB adjusted to pH 7 + 100 mM NaCl, read-out: NaCl IC50): > 10000 nM
IC50 (E. coli [6]; ½ PDB adjusted to pH 7, no added NaCl, read-out: IC50): 4600 ± 1600 nM
IC50 (S. aureus ATCC 9144): 5000 ± 500 nM

Reference: paper PMC6474387, “Salt-Tolerant Antifungal and Antibacterial Activities of the Corn Defensin ZmD32” (Frontiers in Microbiology, 2019)
